Measured values from ChEMBL document CHEMBL3885881, “DrugMatrix”.

Species on record: Rattus norvegicus
Format: toxicity, organism-based, Sprague-Dawley
Conditions: in vivo, ip, 24 h, route intraperitoneal, time 1 day, […]; for ABSOLUTE EOSINOPHIL / ABSOLUTE LYMPHOCYTE / ABSOLUTE MONOCYTE / ABSOLUTE SEGMENTED NEUTROPHIL / BASOPHIL / EOSINOPHIL / ERYTHROCYTE COUNT / HEMATOCRIT / HEMOGLOBIN / LEUKOCYTE COUNT / LYMPHOCYTE / MEAN CORPUSCULAR HEMOGLOBIN / MEAN CORPUSCULAR HEMOGLOBIN CONCENTRATION / MEAN CORPUSCULAR VOLUME / MONOCYTE / NEUTROPHIL / NUCLEATED RED BLOOD CELLS / PLATELET COUNT: tissue Blood; for ALANINE AMINOTRANSFERASE / ALBUMIN / ALKALINE PHOSPHATASE / ASPARTATE AMINOTRANSFERASE / BLOOD UREA NITROGEN / CARBON DIOXIDE / CHLORIDE / CHOLESTEROL / CREATININE / GLUCOSE / LACTATE DEHYDROGENASE / LIPASE / PHOSPHORUS / POTASSIUM / SODIUM / TOTAL BILIRUBIN / TOTAL PROTEIN / URIC ACID: tissue Plasma
[1] = 0 mg/kg, vehicle control, dose level Control

Description: DrugMatrix - Regimen: Single

ClC(Cl)=C(Cl)C(Cl)=C(Cl)Cl [HEXACHLOROBUTADIENE]
ABSOLUTE EOSINOPHIL [1]: 212 CELLS/uL | ABSOLUTE LYMPHOCYTE [1]: 10220.17 CELLS/uL | ABSOLUTE MONOCYTE [1]: 368.83 CELLS/uL | ABSOLUTE SEGMENTED NEUTROPHIL [1]: 1749 CELLS/uL | BASOPHIL [1]: 0% | EOSINOPHIL [1]: 1.67% | ERYTHROCYTE COUNT [1]: 5.74 x10E6/uL | HEMATOCRIT [1]: 35.72% | HEMOGLOBIN [1]: 13 G/DL | LEUKOCYTE COUNT [1]: 12.55 x10E3/uL | LYMPHOCYTE [1]: 81.83% | MEAN CORPUSCULAR HEMOGLOBIN [1]: 22.65 pg | MEAN CORPUSCULAR HEMOGLOBIN CONCENTRATION [1]: 36.42 G/DL | MEAN CORPUSCULAR VOLUME [1]: 62.18 fL | MONOCYTE [1]: 2.83% | NEUTROPHIL [1]: 13.67% | NUCLEATED RED BLOOD CELLS [1]: 0 /100WBC | PLATELET COUNT [1]: 841.83 x10E3/uL | ALANINE AMINOTRANSFERASE [1]: 54 u/L | ALBUMIN [1]: 4.15 G/DL | ALKALINE PHOSPHATASE [1]: 357.33 u/L | ASPARTATE AMINOTRANSFERASE [1]: 116 u/L | BLOOD UREA NITROGEN [1]: 14.17 mg/dL | CARBON DIOXIDE [1]: 34.5 mmol/L | CHLORIDE [1]: 99.17 MEQ/L | CHOLESTEROL [1]: 79.17 mg/dL | CREATININE [1]: 0.2 mg/dL | GLUCOSE [1]: 143.33 mg/dL | LACTATE DEHYDROGENASE [1]: 187.17 u/L | LIPASE [1]: 8.83 u/L | PHOSPHORUS [1]: 11.4 mg/dL | POTASSIUM [1]: 6.36 MEQ/L | SODIUM [1]: 143.32 MEQ/L | TOTAL BILIRUBIN [1]: 0.23 mg/dL | TOTAL PROTEIN [1]: 6.22 G/DL | URIC ACID [1]: 1.25 mg/dL | ABSOLUTE EOSINOPHIL (50 mg/kg, dose level High): 167 CELLS/uL | ABSOLUTE LYMPHOCYTE (50 mg/kg, dose level High): 9489 CELLS/uL | ABSOLUTE MONOCYTE (50 mg/kg, dose level High): 340.67 CELLS/uL | ABSOLUTE SEGMENTED NEUTROPHIL (50 mg/kg, dose level High): 2070 CELLS/uL | BASOPHIL (50 mg/kg, dose level High): 0% | EOSINOPHIL (50 mg/kg, dose level High): 1.33% | ERYTHROCYTE COUNT (50 mg/kg, dose level High): 5.16 x10E6/uL | HEMATOCRIT (50 mg/kg, dose level High): 31.83% | HEMOGLOBIN (50 mg/kg, dose level High): 11.8 G/DL | LEUKOCYTE COUNT (50 mg/kg, dose level High): 12.07 x10E3/uL | LYMPHOCYTE (50 mg/kg, dose level High): 79.33% | MEAN CORPUSCULAR HEMOGLOBIN (50 mg/kg, dose level High): 22.87 pg | MEAN CORPUSCULAR HEMOGLOBIN CONCENTRATION (50 mg/kg, dose level High): 37.07 G/DL | MEAN CORPUSCULAR VOLUME (50 mg/kg, dose level High): 61.67 fL | MONOCYTE (50 mg/kg, dose level High): 2.67% | NEUTROPHIL (50 mg/kg, dose level High): 16.67% | NUCLEATED RED BLOOD CELLS (50 mg/kg, dose level High): 0 /100WBC | PLATELET COUNT (50 mg/kg, dose level High): 549 x10E3/uL | ALANINE AMINOTRANSFERASE (50 mg/kg, dose level High): 65.67 u/L | ALBUMIN (50 mg/kg, dose level High): 4.2 G/DL | ALKALINE PHOSPHATASE (50 mg/kg, dose level High): 368.67 u/L | ASPARTATE AMINOTRANSFERASE (50 mg/kg, dose level High): 251.67 u/L | BLOOD UREA NITROGEN (50 mg/kg, dose level High): 15.33 mg/dL | CARBON DIOXIDE (50 mg/kg, dose level High): 30.33 mmol/L | CHLORIDE (50 mg/kg, dose level High): 100.67 MEQ/L | CHOLESTEROL (50 mg/kg, dose level High): 75.67 mg/dL | CREATININE (50 mg/kg, dose level High): 0.22 mg/dL | GLUCOSE (50 mg/kg, dose level High): 192.33 mg/dL | LACTATE DEHYDROGENASE (50 mg/kg, dose level High): 377.67 u/L | LIPASE (50 mg/kg, dose level High): 9 u/L | PHOSPHORUS (50 mg/kg, dose level High): 12.03 mg/dL | POTASSIUM (50 mg/kg, dose level High): 5.96 MEQ/L | SODIUM (50 mg/kg, dose level High): 144.97 MEQ/L | TOTAL BILIRUBIN (50 mg/kg, dose level High): 0.23 mg/dL | TOTAL PROTEIN (50 mg/kg, dose level High): 6.1 G/DL | URIC ACID (50 mg/kg, dose level High): 1.2 mg/dL
